Experimental findings from patent publication US4132778A, “Antibiotic A-32887” (Eli Lilly and Company, priority 1977, dated 1979) are described below.

For one experiment, the system named is guinea pig left atria. Briefly: Cardiac contractility in guinea pig left atria. The note with it: 10^-5 molar. The source says: The A-32887 compounds are potential cardiotonic agents. In tests using guinea pig left atria, A-32887 (Na-K salt) increased cardiac contractility. Response to this test is expressed as a percentage of the maximal force that could be elicited by a challenge dose of norepinephrine. A-32887 (Na-K salt), at a 10^-5 molar concentration, increased cardiac contractility by 28.0 ± 7.1 percent.

Experiment [1] concerns Fusobacterium necrophorum. Nature of the experiment: Standard agar-dilution assay, anaerobic bacteria, Table IX. Type of experiment: cell-based. The note with it: 24-hour incubation.
For experiment [2], the system named is Bacteriodes fragilis ssp fragilis 1877. The experiment is described as above. Type of experiment: cell-based. The note with it: 24-hour incubation.
For a further experiment, the system named is Peptococcus prevoti. The experiment is described as above. The format is cell-based. The note with it: 24-hour incubation.
Experiment [3] has as its system ruminal propionate concentration. Nature of the experiment: Ruminal VFA in fistulated feed-lot cattle (Table XV). Type of experiment: in vivo. The note with it: 30 g/ton, 24 days. The source says:
The procedure used in testing cattle in this manner is also described in Raun's U.S. Pat. No. 3,839,557 (see Example 9). Table XV summarizes the results of such a test with A-32887 (Na-K salt) wherein five feed-lot cattle weighing approximately 425 kg. were in each group and the mean percent increases in ruminal propionate concentration were averaged over four analyses in a 24-day treatment period.

The next experiment has as its system rumen flora. Briefly: Rumen volatile-fatty-acid (VFA) production test in flasks (Table XIV). The note with it: 1 mcg/ml.
For a further experiment, the system named is acute swine dysentery. Nature of the experiment: Swine dysentery test in infected pigs (Table XVII). The note with it: 100 g/ton in feed. The format is in vivo. As to the method: In another aspect the A-32887 compounds are useful in the prevention and control of swine dysentery. A preferred method of administration to swine is by incorporation of an appropriate amount of an A-32887 compound into the feed ration. […] In this test, groups of four pigs were challenged orally with 5.0 ml of a colon-content/tissue suspension prepared from pigs suffering from acute swine dysentery. Treated pigs were challenged 24 hours after initiating feed treatment. The test was carried out over a period of 26 days, observing pigs daily, and weighing them weekly and on day 26.
*Fecal material for each group was rated daily with 0= normal, 1= slight
blood or mucus, 2= moderate blood or mucus, 3= marked blood or mucus.
Index is the total score per treatment for 25 days.

The subject of another experiment is ATPase. Briefly: In vitro ATPase inhibition test using NaCl. The format is biochemical. The source says:
In yet another aspect, the A-32887 compounds are active as inhibitors of the enzyme ATPase. ATPase, an alkali-metal-sensitive enzyme found in cell membranes, is involved in the energy necessary for active transport. "Active transport" refers to the energy-requiring series of operations whereby intracellular and extracellular fluids maintain their compositions. Inhibitors of ATPase reduce the energy required for active transport.

The test system of experiment [4] is Bacteriodes fragilis ssp fragilis 1936B. Briefly: Standard agar-dilution assay, anaerobic bacteria, Table IX. The note with it: 24-hour incubation. Type of experiment: cell-based.
The test system of a further experiment is Fusobacterium symbiosum. The experiment is described as above. The format is cell-based. The note with it: 24-hour incubation.

A word on the MIC: it is the least concentration at which growth counts as inhibited. The low end stands for inhibition by little substance, the high end for a need for much substance. `CO[C@H]1CC[C@H](OC2[C@@H](C)[C@@](C)(O)O[C@H]([C@H]3CC[C@H]([C@@H]4CC[C@H]([C@@]5(C)O[C@]6(O[C@H](C[C@@H]7O[C@](O)([C@@H](O)C(=O)O)[C@@H](C)[C@H](OC)[C@@]7(C)OC)C[C@@H](OC)[C@H]6C)[C@H](C)[C@H]5OC)O4)O3)[C@H]2C)O[C@@H]1C.[K+].[Na+]` (stereo partly shown) [A-32887 (Na-K salt)]: the “increase of cardiac contractility (percentage of maximal force elicited by norepinephrine)” value with guinea pig left atria was 28.0 ± 7.1%. The same compound showed an MIC in experiment [1] of 32 µg/mL. In experiment [2], this compound yielded an MIC of 2 µg/mL. Also, in the experiment on Peptococcus prevoti, the MIC was at most 0.5 µg/mL. In experiment [3], the “Molar % Butyrate” value is recorded as 9.6 Molar % and the “Total VFA” value worked out at 79.6 mM/l. In the experiment with rumen flora, the “Ratio of Treated to Control, Molar % Acetate” value is given as 0.5744; the “Ratio of Treated to Control, Molar % Butyrate” value was found to be 1.1116; the “Ratio of Treated to Control, Total VFA mM/l.” value was found to be 0.7498. For the same compound, the “Ratio of Treated to Control, Molar % Propionate” value in the experiment with rumen flora (*P<0.01) was found to be 1.4191. In addition, in the experiment with acute swine dysentery, the “No. Died per No. in Group” value is 0/4 and the “No. with Colon Lesions/No. in Group” value is reported as 2/4. In the experiment with acute swine dysentery (total score per treatment for 25 days), the “Diarrhea Index” value turned out to be 22. Besides, the ATPase inhibition entry with ATPase is on record as “shown to inhibit ATPase”. Besides, in experiment [4], the MIC amounted to 2 µg/mL. For the same compound, the MIC against Fusobacterium symbiosum was found to be 32 µg/mL.
